# Test results taken from article PMC9748900, “Unconventional isoquinoline-based SERMs elicit fulvestrant-like transcriptional programs in ER+ breast cancer cells” (NPJ Breast Cancer, 2022).
# “Also recorded” adds a separate entry of the source. Like-named read-outs stand apart in the source and are kept apart here.
# What was measured:
# [1] = test system: Ishikawa endometrial cells; assay: Alkaline phosphatase (AP) assay in Ishikawa cells; format: cell-based, human; settings: 72 h; for AP1 Induction: 1 nM E2 or 1 μM compound, absorbance at 405 nm, mean + std. dev., n = 3-9
# Description: SERM enhancement of ERα accumulation in breast cancer cells correlates with uterotrophic activities[22],[30]. Despite the inclusion of side arms from known SERDs, most T6Is appeared SERM-like in breast cancer cells as they increased ERα levels. To measure the SERM-agonist activities of the T6Is, we employed an AP activity assay in Ishikawa endometrial cells[22],[32],[40]. […] Many T6Is show unexpected AP activities in these cells. […] Therefore, we would expect these SERMs to show a greater induction of AP (Supplementary Fig. 5). […] This difference was significant (p = 0.004) compared to 4OHT, which measured 0.68 ± 0.12 absorbance units. In most studies of SERM-agonist activities, AP assays are combined with increases in uterine wet-weight in vivo[22],[41],[42].
# AP assays were performed as described. Briefly, 15,000 Ishikawa cells were seeded into 96-well plates then placed in serum-starved medium for 48–72 h. Cells were treated for three days with veh, hormone, SERM, or SERD. The media was aspirated and the cells were frozen at −80 °C for at least 24 h. Cells were thawed then incubated with p-nitrophenyl phosphate (ThermoFisher) chromogenic AP substrate. After 60 min at 40 °C, absorbance was read at 405 nm on a BioTek Cytation 5 plate reader.
# Ishikawa cells = assay: Ishikawa cell count (endometrial proliferation); format: cell-based, human; settings: 1 nM E2 or 1 μM antiestrogen, 144 h
# [2] = test system: transcriptome of T47D breast cancer cells; assay: RNA sequencing of T47D cells; format: cell-based
# Protocol: We next used RNA transcriptomic analysis (RNAseq) to identify differentially affected genes. […] All sequencing runs were performed with three replicates per treatment.
# T47D breast cancer cells were grown in 6-well dishes at 50,000 cells per well. […] After 24 h, they were placed in serum-starved media for 48 h. […] RNA was isolated using a Qiagen RNeasy Kit then sent to Novogene for sequencing and bioinformatics analysis.
# [3] = test system: gene expression in MCF7:WS8 breast cancer cells; assay: qPCR gene expression in MCF7:WS8 cells
# [4] = test system: gene expression in T47D breast cancer cells; assay: qPCR gene expression in T47D cells; format: cell-based; settings: 1 μM + 1 nM E2, 16 h
# [5] = test system: patients with advanced disease with prior hormone therapy; settings: compared to standard of care ref 6, cited from earlier work
# ERα [6] = biological target: T1, ERα (Homo sapiens, UniProt P03372); assay: ERE transcriptional reporter gene assay in MCF7 cells; format: cell-based; set-up: endogenous in cells; host or cells: MCF7 cells with 3x-ERE-GFP reporter
# T1 sequence (P03372 1-595): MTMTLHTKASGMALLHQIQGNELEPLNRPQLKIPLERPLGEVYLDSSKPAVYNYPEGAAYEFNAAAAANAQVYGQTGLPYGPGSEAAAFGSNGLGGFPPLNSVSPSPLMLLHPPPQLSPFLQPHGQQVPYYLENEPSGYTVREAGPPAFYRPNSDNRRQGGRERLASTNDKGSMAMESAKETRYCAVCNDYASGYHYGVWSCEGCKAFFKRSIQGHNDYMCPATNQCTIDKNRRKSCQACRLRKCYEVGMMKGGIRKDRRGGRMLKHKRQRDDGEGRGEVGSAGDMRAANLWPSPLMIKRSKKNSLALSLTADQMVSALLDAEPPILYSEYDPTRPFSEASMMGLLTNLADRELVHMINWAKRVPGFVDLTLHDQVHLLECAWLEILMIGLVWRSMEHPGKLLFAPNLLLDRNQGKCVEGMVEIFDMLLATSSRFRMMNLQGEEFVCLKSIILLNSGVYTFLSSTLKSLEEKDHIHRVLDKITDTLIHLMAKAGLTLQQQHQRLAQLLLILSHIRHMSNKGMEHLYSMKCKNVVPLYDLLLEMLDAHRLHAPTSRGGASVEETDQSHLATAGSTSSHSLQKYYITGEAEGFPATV
# Protocol: A cyclopropyl group was used in place of RAD1901’s ethylamine. […] We initially synthesized 4 derivatives comprised of different pharmacophores on the analogous steroidal A ring (Fig. 2d) and used an ERE reporter gene assay in MCF7 breast cancer cells to measure their transcriptional inhibitory activities.
# This assay was performed in accordance with a previous report. MCF7 breast cancer cells with a 3x-estrogen response element-green fluorescent protein (GFP) reporter gene construct under a CMV promoter were plated in 96-well dishes at 3000 cells per well. Cells were cultured for 48 h in stripped media that included charcoal stripped fetal bovine serum (FBS). Cells were treated with increasing concentrations of antiestrogen (5 pm to 1 µM) for 24 h. Subsequently, percent GFP-positive cells were imaged using a BioTek Cytation 5 live cell imager. All assays were performed three times with three technical replicates each.
# T47D breast cancer cells = assay: Cellular proliferation (label-free cell count), T47D; format: cell-based; settings: 1 nM E2, normalized to vehicle
# Protocol: In addition, we used a crystal violet assay to measure the effect of T6I-14-1 on MCF7 viability.
# MCF7, MCF7:WS:8, Y537S ESR1 MCF7 and T47D breast cancer cell lines were grown in 96-well dishes at a starting cell count of 1000 cells per well. […] Cells were grown in a BioSpa attached to a BioTek Cytation 5 and were automatically counted every twelve hours for 7–10 days or until the E2-only wells reached confluence. Media was replaced every 4 days and drug was maintained in each media change. Each study was repeated three times with three technical replicates each.
# ERα [7] = biological target: T1, ERα; assay: In-cell Western of ERα levels in MCF7:WS8 cells; format: cell-based; set-up: endogenous in cells; settings: MCF7:WS8, 1 μM, 24 h, compared to 4OHT
# Description: SERMs and SERDs differentially affect ERα cellular lifetime/accumulation, which correlates with tissue-specific partial agonistic activities. SERMs increase WT ERα lifetime and are partial agonists in the bone and uterine epithelium by maintaining AF-1-dependent transcriptional coactivator recruitment. SERDs induce rapid WT ERα degradation and are pure antagonists[14],[17],[19],[22],[33]. […] We used an in-cell Western approach to measure how a subset of T6Is affected ERα levels in MCF7:WS8 breast cancer cells. […] A live cell halo-tagged ERα assay was then used to measure the impact of an expanded set of T6Is on receptor accumulation in T47D breast cancer cells after 24 h treatment. […] The difference between T6I-14 and 4OHT was not statistically significant in this assay. […] The IC50 values generally trended with observed differences in transcriptional IC50 (Fig. 2), while the effect at maximum dose varied greatly.
# In-cell Western analysis was performed in a similar manner as previously described. Briefly, T47D or MCF7:WS8 breast cancer cells were grown in blackout 96-well plates starting at 3000 cells per well. After 24 h, cells were placed in serum-starved media and allowed to acclimate for 48–72 h. Cells were treated with hormone, SERM, or SERD alongside vehicle control for 24 h. […] All data were collected on a LI-COR Odyssey DLx and analyzed using Emperia Studio. […]
# [8] = MCF7, 1 nM E2, read-out: Log(IC50) (converted)
smiles,measurement,setting,value
"CC/C(=C(\c1ccc(O)cc1)c1ccc(OCCN(C)C)cc1)c1ccccc1 [4OHT, 4-hydroxytamoxifen, reference compound]",AP1 Induction,[1],0.67 + 0.12
same,AP induction (in words),[1]; 1 μM,robust stimulation of AP activity
same,Ishikawa cell count,Ishikawa cells,marginal but insignificant increase to cell count
"C[C@]12CC[C@@H]3c4ccc(O)cc4CC[C@H]3[C@@H]1CC[C@@H]2O [E2, 17β-estradiol]",SUMO-related differentially expressed genes (RNAseq),[2],downregulates SUMO1 and upregulates desumoylating enzymes including SENP1 and SENP8
same,Ishikawa cell count,Ishikawa cells,robust enhancement of proliferation
"Oc1ccc2c(c1)CC[C@H](c1ccccc1)[C@@H]2c1ccc(OCCN2CCCC2)cc1 [Laso, lasofoxifene]",cMYC mRNA,"[3]; MCF7:WS8, 1 μM + 1 nM E2",upregulated cMYC but it was significantly less (p = 0.02) than T6I-29-1A
same,AP1 Induction,[1],0.51 + 0.16
same,AP activity,[1]; 1 μM,0.51 ± 0.16 absorbance units
same,CDK1 mRNA,[4],slightly upregulated CDK1
same,RPS6KL1 mRNA,[4],only slightly enriched
"CCNCCc1ccc(CN(CC)c2cc(OC)ccc2[C@@H]2CCc3cc(O)ccc3C2)cc1 [RAD1901, elacestrant]",reduced risk of disease progression or death,[5]; all patients,30%
same,reduced risk of disease progression or death,"[5]; patients with ESR1 mutations, including the Y537S",45%
same,CDK1 mRNA,[3]; MCF7:WS8,downregulated its expression
same,AP1 Induction,[1],0.28 + 0.08
same,CDK1 mRNA,[4],slightly upregulated CDK1
same,RPS6KL1 mRNA,[4],only slightly enriched
O=C(CC(F)(F)F)N1C(c2ccc(OCCN3CCCC3)cc2)c2ccc(O)cc2CC12CC2 (stereo not drawn) [T6I-1C],IC50,ERα [6]; [8],0.17 µM
O=C(c1ccccc1)N1C(c2ccc(OCCN3CCCC3)cc2)c2ccc(O)cc2CC12CC2 (stereo not drawn) [T6I-1D],IC50,ERα [6]; [8],0.123 µM
same,IC50,"ERα [6]; MCF7, 1 nM E2, read-out: anti-transcriptional IC50",~0.1 µM
CCN1CC(COc2ccc(C3c4ccc(O)cc4CC4(CC4)N3C(=O)c3ccccc3)cc2)C1 (stereo not drawn) [T6I-3],AP1 Induction,[1],0.34 + 0.07
same,"anti-proliferative activity, cell count after 7 days (Fig. 7)",T47D breast cancer cells,did not improve anti-proliferative activities
O=C(c1ccccc1)N1C(c2ccc(OCC3CN(CCCF)C3)cc2)c2ccc(O)cc2CC12CC2 (stereo not drawn) [T6I-4A],AP1 Induction,[1],0.69 + 0.16
same,AP induction (in words),[1]; 1 μM,significant induction of AP compared to the propylazetidine-containing T6I-4
O=C(c1ccccc1)N1C(c2ccc(OCC3CN(CCCCl)C3)cc2)c2ccc(O)cc2CC12CC2 (stereo not drawn) [T6I-4B],AP1 Induction,[1],0.61 + 0.10
same,AP induction (in words),[1]; 1 μM,significant induction of AP compared to the propylazetidine-containing T6I-4
CCCN1CC(COc2ccc(C3c4ccc(O)cc4CC4(CC4)N3C(=O)c3ccccc3)cc2)C1 (stereo not drawn) [T6I-4],AP1 Induction,[1],0.24 + 0.07
same,AP induction (in words),[1]; 1 μM,AP induction similar to a SERD; also recorded: no measurable AP1 activity
CCCN1CCC(COc2ccc(C3c4ccc(O)cc4CC4(CC4)N3C(=O)c3ccccc3)cc2)C1 (stereo not drawn) [T6I-14],ERα levels by in-cell Western,ERα [7],significant enhancement
CCCCN1CCC(COc2ccc(C3c4ccc(O)cc4CC4(CC4)N3C(=O)c3ccccc3)cc2)C1 (stereo not drawn) [T6I-22],AP1 Induction,[1],0.55 + 0.06
CCCCCN1CCC(COc2ccc(C3c4ccc(O)cc4CC4(CC4)N3C(=O)c3ccccc3)cc2)C1 (stereo not drawn) [T6I-23],AP1 Induction,[1],0.44 + 0.08
O=C(c1ccccc1)N1C(c2ccc(OCC3CCN(CCCF)C3)cc2)c2ccc(O)cc2CC12CC2 (stereo not drawn) [T6I-29],AP1 Induction,[1],0.63 + 0.08
same,AP induction (in words),[1]; 1 μM,greater induction of AP1 compared to its separated chiral species
same,"anti-proliferative activity, cell count after 7 days (Fig. 7)",T47D breast cancer cells,slightly improved efficacy versus propyl alone
CCCN1CCC(CCc2ccc(C3c4ccc(O)cc4CC4(CC4)N3C(=O)c3ccccc3)cc2)C1 (stereo not drawn) [T6I-Me],AP1 Induction,[1],0.57 + 0.08
CCCN1CCC(CNc2ccc(C3c4ccc(O)cc4CC4(CC4)N3C(=O)c3ccccc3)cc2)C1 (stereo not drawn) [T6I-NH],AP1 Induction,[1],0.50 + 0.09
CCCN1CCC(CSc2ccc(C3c4ccc(O)cc4CC4(CC4)N3C(=O)c3ccccc3)cc2)C1 (stereo not drawn) [T6I-SH],AP1 Induction,[1],0.42 + 0.07
